In ChEMBL document CHEMBL5532657, “Serendipitous discovery of Class I HDAC inhibitors from rational design of molecular glue degraders targeting HDAC” (Eur J Med Chem, 2024) one finds Activity and inhibition data, which are given here for 14 compounds.

In one test the test system is A549. The test is described as follows: Antiproliferative activity against human A549 cells assessed as cell growth inhibition at 5 uM incubated for 48 hrs by CCK-8 assay. It is filed as functional, cell-based.
Another test relates to HCT-116. The test is described as follows: Antiproliferative activity against human HCT-116 cells assessed as cell growth inhibition at 5 uM incubated for 48 hrs by CCK-8 assay. It is filed as functional, cell-based. For orientation: Formazan colour is commonly taken as a measure of viable cells.
Test [1] deals with T1, Protein deacetylase HDAC6 (Homo sapiens) (UniProt Q9UBN7).
T1 sequence (whole entry): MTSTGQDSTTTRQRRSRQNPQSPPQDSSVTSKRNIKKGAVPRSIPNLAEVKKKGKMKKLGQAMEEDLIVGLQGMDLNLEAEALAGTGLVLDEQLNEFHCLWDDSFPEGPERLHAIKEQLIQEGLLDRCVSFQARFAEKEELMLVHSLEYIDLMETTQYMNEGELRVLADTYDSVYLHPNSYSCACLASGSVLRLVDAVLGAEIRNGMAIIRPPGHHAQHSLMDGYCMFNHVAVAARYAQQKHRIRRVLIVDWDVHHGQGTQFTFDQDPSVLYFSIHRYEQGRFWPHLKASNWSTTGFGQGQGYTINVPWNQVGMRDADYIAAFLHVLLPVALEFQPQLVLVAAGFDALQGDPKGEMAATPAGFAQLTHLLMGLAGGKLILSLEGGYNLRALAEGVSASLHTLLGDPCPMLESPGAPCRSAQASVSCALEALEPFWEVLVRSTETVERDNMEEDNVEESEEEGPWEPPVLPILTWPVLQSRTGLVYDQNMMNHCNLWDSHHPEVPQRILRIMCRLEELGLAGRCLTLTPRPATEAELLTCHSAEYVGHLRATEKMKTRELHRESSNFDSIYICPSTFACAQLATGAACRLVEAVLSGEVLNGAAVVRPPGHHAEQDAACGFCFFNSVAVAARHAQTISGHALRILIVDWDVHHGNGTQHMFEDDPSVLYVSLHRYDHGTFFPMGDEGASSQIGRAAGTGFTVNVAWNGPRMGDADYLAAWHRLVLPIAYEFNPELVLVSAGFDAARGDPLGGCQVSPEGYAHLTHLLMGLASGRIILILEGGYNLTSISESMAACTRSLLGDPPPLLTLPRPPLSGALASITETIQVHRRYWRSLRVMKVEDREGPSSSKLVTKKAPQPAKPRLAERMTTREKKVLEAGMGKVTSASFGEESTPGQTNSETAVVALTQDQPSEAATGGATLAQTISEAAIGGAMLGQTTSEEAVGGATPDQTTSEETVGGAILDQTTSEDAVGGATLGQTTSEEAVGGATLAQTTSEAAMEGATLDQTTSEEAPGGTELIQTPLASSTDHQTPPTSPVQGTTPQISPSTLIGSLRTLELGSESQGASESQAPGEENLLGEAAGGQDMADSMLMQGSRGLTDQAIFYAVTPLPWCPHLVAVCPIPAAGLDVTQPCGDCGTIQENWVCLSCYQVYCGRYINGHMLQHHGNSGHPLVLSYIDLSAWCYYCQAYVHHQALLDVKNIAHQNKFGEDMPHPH
Nature of the test: Induction of HDAC6 degradation in human RS4-11 cells at 0.5 to 10 uM incubated for 12 hrs by Western blotting analysis. The note with it: dose 0.5-10 µM. It is filed as cell-based. (In western blotting, separated proteins are transferred to a membrane and probed.)

A further test deals with HeLa. Nature of the test: Antiproliferative activity against human HeLa cells assessed as cell growth inhibition at 5 uM incubated for 48 hrs by CCK-8 assay. It is filed as functional, cell-based.
Another test has as its target Histone deacetylase 1 (Homo sapiens, UniProt Q13547). Nature of the test: Induction of HDAC1 degradation in human RS4-11 cells at 0.5 to 10 uM incubated for 12 hrs by Western blotting analysis. The format is cell-based. The settings on record: dose 0.5-10 µM.
Test [2] concerns the target T1, Protein deacetylase HDAC6 (Homo sapiens). Nature of the test: Inhibition of HDAC6 in human RS4-11 cells assessed as effect on alpha-tubulin acetylation by Western blot assay. It is filed as cell-based.
For test [3], the target named is Histone deacetylase (Homo sapiens) (UniProt Q13547+O15379+Q9UBN7+Q92769+Q9UQL6+Q8WUI4+Q9BY41+Q96DB2+P56524+Q9UKV0+Q969S8). The test is described as follows: Inhibition of HDAC in human RS4-11 cells assessed as upregulation of histone H3 acetylation by Western blot assay. The format is cell-based.

Active and inactive are the calls of the source. No cut-off for these calls is given here.

Histone deacetylase 1, sequence (Q13547 whole entry): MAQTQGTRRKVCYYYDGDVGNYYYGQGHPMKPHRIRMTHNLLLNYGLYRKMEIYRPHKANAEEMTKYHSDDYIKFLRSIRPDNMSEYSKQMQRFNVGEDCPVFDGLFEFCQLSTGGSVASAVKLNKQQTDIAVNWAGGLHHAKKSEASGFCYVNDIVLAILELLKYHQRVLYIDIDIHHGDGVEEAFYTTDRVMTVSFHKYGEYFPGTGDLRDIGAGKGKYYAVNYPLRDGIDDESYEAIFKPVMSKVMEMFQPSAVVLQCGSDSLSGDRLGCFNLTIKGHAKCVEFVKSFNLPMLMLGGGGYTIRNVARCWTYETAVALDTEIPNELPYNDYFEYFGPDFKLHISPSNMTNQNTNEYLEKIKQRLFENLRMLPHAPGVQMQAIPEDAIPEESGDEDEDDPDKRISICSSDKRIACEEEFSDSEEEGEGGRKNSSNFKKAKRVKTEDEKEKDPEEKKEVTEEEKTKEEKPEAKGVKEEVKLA

For `Nc1ccccc1NC(=O)CCCNc1cccc2c1C(=O)N(C1CCC(=O)NC1=O)C2=O` (configuration not stated), the outcome (in the test on A549; in the test on HCT-116; in test [1]; in the test on HeLa; on Histone deacetylase 1) was inactive.
On to `O=C(CCCCNc1cccc2c1C(=O)N(C1CCC(=O)NC1=O)C2=O)NCCS` (configuration not stated), for which the result (in the test with A549; with HCT-116; in test [1]; in the test with HeLa; at Histone deacetylase 1) was inactive.
In the case of `O=C1CCC(N2C(=O)c3cccc(NCCOCCOCCOCCn4cc(C(=O)NO)nn4)c3C2=O)C(=O)N1` (configuration not stated), the result (in the test with A549; in the test with HCT-116; in test [1]; in the test with HeLa; at Histone deacetylase 1) was inactive.
With `Nc1cc(F)ccc1NC(=O)CCCCNc1cccc2c1C(=O)N(C1CCC(=O)NC1=O)C2=O` (configuration not stated), the outcome (in the test on A549; with HCT-116; in test [1]; in the test with HeLa; on Histone deacetylase 1) was inactive.
With `Nc1ccccc1NC(=O)c1cn(CCOCCNc2cccc3c2C(=O)N(C2CCC(=O)NC2=O)C3=O)nn1` (configuration not stated), the result (in the test with A549; in the test with HCT-116; in test [1]; in the test with HeLa; on Histone deacetylase 1) was inactive.
As for `O=C1CCC(N2C(=O)c3cccc(NCCOCCn4cc(C(=O)NCCS)nn4)c3C2=O)C(=O)N1` (configuration not stated), the result (in the test with A549; with HCT-116; in test [1]; in the test with HeLa; at Histone deacetylase 1) was inactive.
For `O=C(CCCCCCNc1cccc2c1C(=O)N(C1CCC(=O)NC1=O)C2=O)NO` (configuration not stated), the result (in test [2]; in the test on A549; in the test on HCT-116; in test [1]; in the test with HeLa; at Histone deacetylase 1) was inactive. In addition, the inhibition result in test [3] was “Active”.
`O=C(CCCNc1cccc2c1C(=O)N(C1CCC(=O)NC1=O)C2=O)NO` (configuration not stated): the outcome (in the test on A549; in the test with HCT-116; in test [1]; with HeLa; at Histone deacetylase 1) was inactive.
On to `Nc1cc(F)ccc1NC(=O)CCCCCCCNc1cccc2c1C(=O)N(C1CCC(=O)NC1=O)C2=O` (configuration not stated), for which the result (with A549; in the test on HCT-116; in test [1]; with HeLa; on Histone deacetylase 1) was inactive.
For `O=C1CCC(N2C(=O)c3cccc(NCc4ccc(C(=O)NO)cc4)c3C2=O)C(=O)N1` (configuration not stated), the outcome (in the test on A549; in the test with HCT-116; in test [1]; in the test on HeLa; at Histone deacetylase 1) was inactive.
Regarding `Nc1cc(F)ccc1NC(=O)CCCNc1cccc2c1C(=O)N(C1CCC(=O)NC1=O)C2=O` (configuration not stated), the result (in the test on A549; with HCT-116; in test [1]; in the test with HeLa; on Histone deacetylase 1) was inactive.
For the compound `Nc1ccccc1NC(=O)c1cn(CCOCCOCCOCCNc2cccc3c2C(=O)N(C2CCC(=O)NC2=O)C3=O)nn1` (configuration not stated), the outcome (in the test with A549; with HCT-116; in test [1]; in the test with HeLa; at Histone deacetylase 1) was inactive.
On to `O=C(CCCCCCCNc1cccc2c1C(=O)N(C1CCC(=O)NC1=O)C2=O)NO` (configuration not stated), for which the result (with A549; in the test with HCT-116; in test [1]; in the test with HeLa; on Histone deacetylase 1) was inactive.
For the compound `O=C(CCCNc1cccc2c1C(=O)N(C1CCC(=O)NC1=O)C2=O)NCCS` (configuration not stated), the result (in the test with A549; in the test on HCT-116; in test [1]; in the test with HeLa; on Histone deacetylase 1) was inactive.
